Consider six molecules from US5382582A, “Methotrexate analogs and methods of using same” (priority 1993, dated 1995).

Series [1] has as its system human leukemia cell line K562. The experiment in a line: Growth inhibition of myelogenous leukemia cells (cell counts, 120 h continuous exposure). Format: cell-based. Particulars: for IC50: Homo sapiens, K562 Cells, 120 hours continuous exposure. On the procedure: (§1) Two suspensious human leukemia cell lines were employed in this study. The myelogenous leukemia cell line K562 was cultured in RPMI 1640 (JRH Biosciences) containing 10% filtered fetal bovine serum (FBS; Irvine Scientific), and the lymphoblastic leukemia cell line CCRF/CEM was cultured in RPMI 1640 containing 20% FBS, 100 U/ml penicillin (GIBCO Laboratories, Grand Island, NY), and 100 μg/ml streptomycin (GIBCO). Cells were maintained at 37° C. with 5% CO2 in air, and were cultured using standard sterile tissue culture technique.
(§2) Prior to toxicity studies, cells were maintained 48 hours in the absence of added inhibitor. Logarithmically growing cells were inoculated at 1×10^4 cells/ml in tissue culture grade petri dishes (35×10 mm), and, following a suitable recovery period, were treated with chemical agents. Inhibitor concentrations ranging from 10^-12 to 10^-4 M were added to the cultures except for a control culture, which contained no added drug. Cell counts were performed by hematometer counting during 120 hours of continuous exposure to the drugs. The IC50 value was obtained by interpolation from graphs of percent growth inhibition plotted against drug concentration.

Series [2] concerns human leukemia cell line CCRF/CEM. The experiment in a line: Growth inhibition of lymphoblastic leukemia cells (cell counts, 120 h continuous exposure). Type of series: cell-based. On the procedure:
as §1, §2

Series [3] in a line: In vivo pharmacokinetics: 7-OH-MTX formed from drug in rabbit plasma. On the set-up: species or system New Zealand White rabbit. As to conditions: i.v., as compared with MTX. On the procedure: A male New Zealand White rabbit was cannulated through the middle ear artery. A single bolus 16.7 mg/kg dose of drug was administered into the ear vein, and 1.0 ml blood samples were withdrawn from the cannulated artery into heparinized tubes at 0, 5, 15, 30, 45, 60, 75 and 90 minutes following drug administration. Plasma was separated from the samples by centrifugation at 1000 rpm, and was kept frozen until analysis.
HPLC analysis was performed as in Example 5, with the exception that the mobile phase was 0.1 M monobasic sodium phosphate and 0.1 M Tris-HCl in 20% methanol at a final pH of 6.7. p-Aminoacetophenone (10 μg/ml in water) was used as an internal standard.
Pharmacokinetic parameters were determined by the method of residual, a standard pharmacokinetic technique for resolving a curve into its various exponential components.
Thus tmax was calculated according to the formula:
tmax =2.3 log (ka /kc)/[…]

For series [4] the following is noted: Tomcuf, J. Organic Chem., 26, 3351 (1961); cited from earlier work.
The conditions of series [5]: high dose regimen; Barak et al. (1984); cited from earlier work.
Series [6] is described as follows: Half-life in rabbit liver homogenate. On the procedure:
(§3) For these experiments, freshly isolated liver from a New Zealand white rabbit was homogenized in 400 ml of cold buffer of pH 7.6 consisting of 10 mM Tris-HCl, 25 mM sucrose and 10 mMMgCl2. The homogenate was centrifuged at 1000× g for 20 minutes at 4° C. and the resulting pellet was resuspended in about 14 ml of the same buffer. […] Two ml samples of the homogenate were removed at 10 minute intervals. Samples were boiled 5 minutes to denature proteins, and then centrifuged to pellet cell debris. […] For HPLC analysis, a Perkin-Elmer 410 LC solvent delivery system and a 5-μm IBM ODS column (4.1×250 mm) with a C18 Guard column were employed. […] Detector output was recorded and integrated by a Perkin-Elmer LCI 100 integrator.

A short description of series [7]: Formation of 7-OH-MTX (7-hydroxylation) in rabbit liver homogenate. As to conditions: as compared with MTX. The protocol:
as §3, with “employed. The mobile phase consisted of 0.1 M monobasic sodium phosphate and 0.1 M Tris-HCl in 27% methanol at a final pH of 7.6.” for “employed.”

For series [8] the following is noted: Rosowsky and Chen, J. Med. Chem., 18, 1308-11 (1974); cited from earlier work.
The conditions of series [9]: man and monkeys; Borsi et al. (1990), Jacobs et al. (1976); cited from earlier work.

Structures are written as SMILES.

The term IC50 denotes the concentration that gives 50% inhibition. Low values mean higher potency, high ones lower potency.

In turn, `[2H]c1nc2nc(N)nc(N)c2nc1C([2H])([2H])N(C)c1ccc(C(=O)N[C@@H](CCC(=O)O)C(=O)O)cc1` (racemic) [7,9,9-d3 -MTX, N-[p-[N-(2,4-diamino-7-deutero-6-pteridinyldideuteromethyl)-N-methylamino]benzoyl]glutamic acid] came in with an IC50 in series [1] of 40 nM. For the same molecule, the “IC50 compared with IC50 of MTX” value in series [1] (K562 and CCRF/CEM cells, D,L-racemate) is reported as “greater than the IC50 values obtained for MTX”. Moreover, in series [2], the IC50 amounted to 48 nM. Moreover, in [3], the “Peak level of 7-OH-MTX less than that obtained from MTX by” value is “about 70%” and the “Time to achieve 7-OH-MTX peak level as compared to that of MTX” value is listed as “more than twice as long”.

Consider `CN(Cc1cnc2nc(N)nc(N)c2n1)c1c(F)cc(C(=O)N[C@@H](CCC(=O)O)C(=O)O)cc1F` [3', 5'-difluoro MTX], for which the “Biological activity as compared with MTX” value in series [4] was “little or no increase in biological activity as compared with MTX”.

In the case of `CN(Cc1nc2c(N)nc(N)nc2nc1O)c1ccc(C(=O)N[C@@H](CCC(=O)O)C(=O)O)cc1` [7-OH-MTX, 7-hydroxymethotrexate], in [5], the “Toxicity” value is given as “the source of this toxicity”.

On to `[2H]c1nc2nc(N)nc(N)c2nc1CN(C)c1ccc(C(=O)N[C@@H](CCC(=O)O)C(=O)O)cc1` [7-d-MTX, N-{p-[N-(2,4-diamino-7-deutero-6-pterridinylmethyl)-N-methylamino]benzoyl}-L -glutamic acid], for which the IC50 came out at 6 nM in series [1] and 9.5 nM in series [2]. Moreover, in [1] (K562 and CCRF/CEM cells, as compared with MTX), the “IC50 lower than IC50 of MTX by” value is recorded as 15-25%. For the same molecule, the “Half-life greater than half-life for MTX by” value in series [6] (rabbit liver homogenate, as compared with MTX) was “about 60%”. In series [7], the “Less 7-OH-MTX formed per unit time than from MTX” value is given as “about 70%”.

As for `Cc1nc2nc(N)nc(N)c2nc1CN(C)c1ccc(C(=O)N[C@@H](CCC(=O)O)C(=O)O)cc1` [7-methyl substituted MTX], in series [8], the “Antifolate antagonism” value is listed as “impaired antifolate antagonism”.

With `CN(Cc1cnc2nc(N)nc(N)c2n1)c1ccc(C(=O)N[C@@H](CCC(=O)O)C(=O)O)cc1` [MTX, N-[4-[[(2,4-diamino-6pteridinyl)methyl]methylamino]benzoyl]-L-glutamicacid, reference compound], the IC50 stood at 8 nM in [1] and 11.3 nM in series [2]. Moreover, in series [6] (rabbit, liver homogenate, pH 7.6), the Half-Life worked out at 28.2 min. Further, the “Conversion in vivo to 7-OH-MTX” value in series [9] is “converted in vivo to 7-hydroxymethotrexate (7-OH-MTX)”. Besides, in [5], the “Toxicity” value was “associated with renal and hepatic toxicity”.
